# “And” between values parts separate entries of the source, which are not always exact repeats. Equal values may be shown once. Where no end group is shown, it is not given here.
# Experiments:
# [1] = tested on: FITC-labelled H. pylori on human gastric mucosa; assay: In situ adhesion assay on histological sections of human gastric mucosa; format: cell-based; details: 300 μM
# Protocol: In situ experiments with histological sections of human gastric mucosa and FITC-labelled H. pylori were performed according to Lengsfeld et al, 2004, J. Agricul. Food Chem: 52, 1495-1503, and evaluated by fluorescent microscopy. The adhesion of FITC-labelled H. pylori to the epithelium was assessed by fluorescent microscopy and imaging. The quantity of adhering bacteria to the epithelial surface was evaluated under double blinded conditions. Maximal adhesion was expressed as total 100% adhesion. The fluorescence area intensity was calculated by ImageJ® software (Olympus, Germany), standardizing the fluorescent area of the negative control as 100%.
# OMP BabA = assay: Dot blot glycoconjugate assay, BabA ligands (Lewis b, H type I); format: binding; details: pre-treatment of H. pylori
# [2] = tested on: H. pylori outer membrane proteins (OMP); assay: Dot blot glycoconjugate assay, adhesins in general; format: binding; details: pre-treatment of H. pylori
# [3] = tested on: FITC-labelled H. pylori on AGS cells; assay: Flow cytometric anti-adhesion assay of FITC-labelled H. pylori on AGS cells; details: for reduction of adhesion: fragments of S3
# Protocol: H. pylori was incubated for 48 h under microaerophilic conditions at 37° C. on Tryptic Soy Agar (Becton Dickinson, Germany), supplemented with 5% defibrinated sheep blood (Oxoid, UK).
# Human gastric epithelial cells (AGS cells) were grown in RPMI 1640 with L-glutamine (PAA, Germany), supplemented with 10% FCS, on tissue culture flasks (75 cm^2, Sarstedt, USA) and 6-well-plates (Sarstedt, USA) in 5% CO2.
# Agar grown H. pylori were harvested and resuspended in sterile carbonate buffer (pH 9.0) to a density of about 1.0×10^8 bacteria per ml. 10 μl of a FITC solution (1% in DMSO) were added and incubated with the bacteria for 45 min. Fluorescent labelling was terminated by pelleting the bacteria (3.150×g, 5 min). Bacteria were washed twice in PBS to remove excess FITC and were gently resuspended for further use.
# [4] = 75 μM, untreated control = 100%
# [5] = 150 μM, untreated control = 100%
compound,measurement,setting,value
DFLEDAFNVNR [S3],inhibition of adhesion in situ,[1],about 40%
same,bacterial interaction with Lewis b-HSA conjugate,OMP BabA,inhibition
same,influence on other adhesins (other than BabA / Lewis b-HSA),[2],not significantly influenced
same,antiadhesive activity against H. pylori (in words),[3],inhibit adhesion
same,rel. adhesion in [%] (±SEM; n = 3),[3]; [4],81% and 81 ± 3%
same,rel. adhesion in [%] (±SEM; n = 3),[3]; [5],83% and 83 ± 6%
LEDAFNV [S3G],rel. adhesion in [%] (±SEM; n = 3),[3]; [4],93 ± 2%
same,rel. adhesion in [%] (±SEM; n = 3),[3]; [5],94 ± 3%
same,reduction of adhesion,[3],about 10%
Asp-Phe-Leu-Glu-Asp (DFLED) [S3A],rel. adhesion in [%] (±SEM; n = 3),[3]; [4],102 ± 3%
same,rel. adhesion in [%] (±SEM; n = 3),[3]; [5],108 ± 6%
LNIGPSSSPDIYNPEAGR [S2],rel. adhesion in [%] (±SEM; n = 3),[3]; [4],93 ± 8%
same,rel. adhesion in [%] (±SEM; n = 3),[3]; [5],94 ± 6%
AFNVNR [S3B],rel. adhesion in [%] (±SEM; n = 3),[3]; [4],97 ± 4%
same,rel. adhesion in [%] (±SEM; n = 3),[3]; [5],104 ± 1%
Asp-Ala-Phe [S3H],antiadhesive activity against H. pylori (in words),[3],inactive
same,rel. adhesion in [%] (±SEM; n = 3),[3]; [4],104 ± 6%
same,rel. adhesion in [%] (±SEM; n = 3),[3]; [5],105 ± 1%
GDFELVGQR [S6],rel. adhesion in [%] (±SEM; n = 3),[3]; [4],94 ± 3%
same,rel. adhesion in [%] (±SEM; n = 3),[3]; [5],97 ± 2%
DFLEDAF [S3F],rel. adhesion in [%] (±SEM; n = 3),[3]; [4],85 ± 3%
same,rel. adhesion in [%] (±SEM; n = 3),[3]; [5],90 ± 5%
same,reduction of adhesion,[3],about 10%
LEDAFNVNR [S3C],rel. adhesion in [%] (±SEM; n = 3),[3]; [4],95 ± 5%
same,rel. adhesion in [%] (±SEM; n = 3),[3]; [5],100 ± 4%
"CC(=O)N[C@H]1[C@H]([C@H](O)[C@H](O)CO)O[C@@](O[C@H]2[C@@H](O)[C@@H](CO)O[C@@H](O[C@H]3[C@H](O)[C@@H](O)C(O)O[C@@H]3CO)[C@@H]2O)(C(=O)O)C[C@@H]1O (stereo partly shown) [positive control, 3′sialyllactose, reference compound]",rel. adhesion in [%] (±SEM; n = 3),[3]; positive control 3′sialyllactose 15 mM,70 ± 5%
LDALEPDNRIESEGGLIETWNPNNK [S1],rel. adhesion in [%] (±SEM; n = 3),[3]; [4],95 ± 10%
same,rel. adhesion in [%] (±SEM; n = 3),[3]; [5],104 ± 7%
DFLEDAFNV [S3E],rel. adhesion in [%] (±SEM; n = 3),[3]; [4],91 ± 4%
same,rel. adhesion in [%] (±SEM; n = 3),[3]; [5],91 ± 4%
same,reduction of adhesion,[3],about 10%
DAFNVNR [S3D],rel. adhesion in [%] (±SEM; n = 3),[3]; [4],89 ± 4%
same,rel. adhesion in [%] (±SEM; n = 3),[3]; [5],89 ± 3%
same,reduction of adhesion,[3],about 10%
WEREEDEEQVDEEWR [S4],rel. adhesion in [%] (±SEM; n = 3),[3]; [4],98 ± 2%
same,rel. adhesion in [%] (±SEM; n = 3),[3]; [5],107 ± 2%
ELAFPGSAQEVDR [S5],bacterial interaction with Lewis b-HSA conjugate,OMP BabA,inhibition
same,influence on other adhesins (other than BabA / Lewis b-HSA),[2],not significantly influenced
same,antiadhesive activity against H. pylori (in words),[3],inhibit adhesion
same,rel. adhesion in [%] (±SEM; n = 3),[3]; [4],94 ± 2%
same,inhibition of adhesion,[3]; 75 μmol,6%
same,rel. adhesion in [%] (±SEM; n = 3),[3]; [5],85 ± 2%
same,inhibition of adhesion,[3]; 150 μmol,17%
